Laboratory results reported in patent US8906909B2 (Curis, Inc., priority 2009, dated 2014).
Read-outs that look alike come from different tables or passages of the source.

Experiments:
Format in all cases: cell-based
H1975 cells = assay: Cell proliferation assay Method B, H1975; conditions: Homo sapiens, NCI-H1975; NSCLC; Method B; 72 hours; read-out: antiproliferative activity IC50, H1975
Outline: (§1)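 Serum-reduced (0.5% FBS) proliferation format: compounds at various concentrations, 72 h incubation, then CellTiter-Glo ATP luminescence as the growth-inhibition measure.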

H1993 cells = assay: Cell proliferation assay Method B, H1993; conditions: Homo sapiens, NCI-H1993; NSCLC; Method B; 72 hours; read-out: antiproliferative activity IC50, H1993
Outline: as §1

MDA-MB-231 cells = assay: Cell proliferation assay Method B, MDA-MB-231; conditions: Homo sapiens, Breast, Method B, 72 hours
Outline: as §1

HCC1500 cells = assay: Cell proliferation assay Method B, HCC1500; conditions: Breast, 72 hours, read-out: antiproliferative activity IC50, HCC1500
Experimental: (§2) Cancer cell lines were plated at 5,000 to 10,000 per well in 96-well flat bottomed plates with various concentration of compounds. The cells were incubated with compounds for 72 hours in the presence of 0.5% of fetal bovine serum. Growth inhibition was accessed by adenosine triphosphate (ATP) content assay using Promega CellTiter-Glo kit. Promega CellTiter-Glo kit is an ATP monitoring system based on firefly luciferase. Briefly, 16 μl of mammalian cell lysis and substrate solution was added to 84 μl of culture medium per well to lyse the cells and stabilize the ATP. The mixture was shaken and incubated for 30 minutes and subsequently the luminescence was measured.

HCC1806 cells = assay: Cell proliferation assay Method B, HCC1806; conditions: Homo sapiens, Breast, 72 hours, read-out: antiproliferative activity IC50, HCC1806
Experimental: as §2

SKBr3 cells = assay: Cell proliferation assay Method B, SKBr3; conditions: Homo sapiens, SK-BR-3, Breast, 72 hours, read-out: antiproliferative activity IC50, SKBr3
Experimental: as §2

BT474 cells = assay: Cell proliferation assay Method B, BT474; conditions: Homo sapiens, BT-474; Breast; Method B; 72 hours; read-out: antiproliferative activity IC50, BT474
Outline: as §1

MDA-MB-361 cells = assay: Cell proliferation assay Method B, MDA-MB-361; conditions: Homo sapiens, Breast, 72 hours, read-out: antiproliferative activity IC50, MDA-MB-361
Experimental: as §2

UACC-893 cells = assay: Cell proliferation assay Method B, UACC-893; conditions: Homo sapiens, Breast, 72 hours, read-out: antiproliferative activity IC50, UACC-893
Experimental: as §2

MCF-7 cells = assay: Cell proliferation assay Method B, MCF-7; conditions: Homo sapiens, MCF7, Breast, 72 hours, read-out: antiproliferative activity IC50, MCF-7
Experimental: as §2

T47D cells = assay: Cell proliferation assay Method B, T47D; conditions: Homo sapiens, Breast, 72 hours, read-out: antiproliferative activity IC50, T47D
Experimental: as §2

ZR-75-1 cells = assay: Cell proliferation assay Method B, ZR-75-1; conditions: Homo sapiens, Breast, 72 hours, read-out: antiproliferative activity IC50, ZR-75-1
Experimental: as §2

HCC1937 cells = assay: Cell proliferation assay Method B, HCC1937; conditions: Homo sapiens, Breast, Method B, 72 hours, read-out: antiproliferative activity IC50, HCC1937
Outline: as §1

MDA-MB-436 cells = assay: Cell proliferation assay Method B, MDA-MB-436; conditions: Homo sapiens, Breast, Method B, 72 hours, read-out: antiproliferative activity IC50, MDA-MB-436
Experimental: as §2

U87MG cells = assay: Cell proliferation assay Method B, U87MG; conditions: Homo sapiens, U-87 MG; Glioblastoma; Method B; 72 hours; read-out: antiproliferative activity IC50, U87MG
Outline: as §1

Ca127 cells = assay: Cell proliferation assay Method B, Ca127; conditions: HNC; Method B; 72 hours; read-out: antiproliferative activity IC50, Ca127
Experimental: as §2

A375 cells = assay: Cell proliferation assay Method B, A375; conditions: Homo sapiens, A-375; Melanoma; Method B; 72 hours; read-out: antiproliferative activity IC50, A375
Outline: as §1

MOLT-4 cells = assay: Cell proliferation assay Method B, MOLT-4; conditions: Homo sapiens, ALL, 72 hours, read-out: antiproliferative activity IC50, MOLT-4
Experimental: as §2

HL-60 cells = assay: Cell proliferation assay Method B, HL-60; conditions: Homo sapiens, AML, 72 hours, read-out: antiproliferative activity IC50, HL-60
Experimental: as §2

U937 cells = assay: Cell proliferation assay Method B, U937; conditions: Homo sapiens, U-937, AML, 72 hours, read-out: antiproliferative activity IC50, U937
Experimental: as §2

THP-1 cells = assay: Cell proliferation assay Method B, THP-1; conditions: Homo sapiens, AML, 72 hours, read-out: antiproliferative activity IC50, THP-1
Experimental: as §2

MV-4-11 cells = assay: Cell proliferation assay Method B, MV-4-11; conditions: Homo sapiens, MV4-11, AML, 72 hours, read-out: antiproliferative activity IC50, MV-4-11
Experimental: as §2

Pfeiffer cells = assay: Cell proliferation assay Method B, Pfeiffer; conditions: Homo sapiens, NHL, 72 hours, read-out: antiproliferative activity IC50, Pfeiffer
Experimental: as §2

Daudi cells = assay: Cell proliferation assay Method B, Daudi; conditions: Homo sapiens, NHL, 72 hours, read-out: antiproliferative activity IC50, Daudi
Experimental: as §2

K562 cells = assay: Cell proliferation assay Method B, K562; conditions: Homo sapiens, CML, 72 hours, read-out: antiproliferative activity IC50, K562
Experimental: as §2

MEG-01 cells = assay: Cell proliferation assay Method B, MEG-01; conditions: Homo sapiens, CML, 72 hours, read-out: antiproliferative activity IC50, MEG-01
Experimental: as §2

ARH77 cells = assay: Cell proliferation assay Method B, ARH77; conditions: Homo sapiens, ARH-77, Multiple Myeloma, 72 hours, read-out: antiproliferative activity IC50, ARH77
Experimental: as §2

L1210 cells = assay: Cell proliferation assay Method B, L1210; conditions: Mouse LL, 72 hours, read-out: antiproliferative activity IC50, L1210
Experimental: as §2

P388 D1 cells = assay: Cell proliferation assay Method B, P388 D1; conditions: P388D1, Mouse Lymphoma, 72 hours, read-out: antiproliferative activity IC50, P388 D1
Experimental: as §2

[1] = read-out: antiproliferative activity IC50, MDA-MB-231 (second listing, r32)

| Compound | IC50 (H1975 cells) | IC50 (H1993 cells) | IC50 (MDA-MB-231 cells; [1]) | IC50 (HCC1500 cells) | IC50 (HCC1806 cells) | IC50 (SKBr3 cells) | IC50 (BT474 cells) | IC50 (MDA-MB-361 cells) | IC50 (UACC-893 cells) | IC50 (MCF-7 cells) | IC50 (T47D cells) | IC50 (ZR-75-1 cells) | IC50 (HCC1937 cells) | IC50 (MDA-MB-436 cells) | IC50 (U87MG cells) | IC50 (Ca127 cells) | IC50 (A375 cells) | IC50 (MOLT-4 cells) | IC50 (HL-60 cells) | IC50 (U937 cells) | other results |
| --- | --- | --- | --- | --- | --- | --- | --- | --- | --- | --- | --- | --- | --- | --- | --- | --- | --- | --- | --- | --- | --- |
| CN(Cc1cc2nc(-c3ccc(N)cc3)nc(N3CCOCC3)c2s1)c1ncc(C(=O)NO)cn1 [Compound 150, 2-(((2-(4-aminophenyl)-4-morpholinothieno[3,2-d]pyrimidin-6-yl)methyl)(methyl)amino)-N-hydroxypyrimidine-5-carboxamide] | < 0.01 µM | < 0.01 µM | 0.01 to 0.1 µM | < 0.01 µM | 0.01 to 0.1 µM | 0.01 to 0.1 µM | < 0.01 µM | < 0.01 µM | < 0.01 µM | < 0.01 µM | < 0.01 µM | 0.01 to 0.1 µM | < 0.01 µM | < 0.01 µM | < 0.01 µM | < 0.01 µM | < 0.01 µM | < 0.01 µM | < 0.01 µM | < 0.01 µM | IC50 (THP-1 cells): < 0.01 µM; IC50 (MV-4-11 cells): < 0.01 µM; IC50 (Pfeiffer cells): < 0.01 µM; IC50 (Daudi cells): < 0.01 µM; IC50 (K562 cells): 0.01 to 0.1 µM; IC50 (MEG-01 cells): 0.01 to 0.1 µM; IC50 (ARH77 cells): < 0.01 µM; IC50 (L1210 cells): < 0.01 µM; IC50 (P388 D1 cells): < 0.01 µM |
| CS(=O)(=O)N1CCN(Cc2cc3nc(-c4cccc5[nH]ncc45)nc(N4CCOCC4)c3s2)CC1 [GDC-0941, reference compound] | 0.1 to 1 µM | 1 to 10 µM | > 10 µM | > 10 µM | > 10 µM | > 10 µM | 0.1 to 1 µM | 0.1 to 1 µM | 1 to 10 µM | 0.1 to 1 µM | > 10 µM | 0.1 to 1 µM | 0.1 to 1 µM | 1 to 10 µM | 0.1 to 1 µM | 0.1 to 1 µM | 1 to 10 µM | 0.1 to 1 µM | 0.1 to 1 µM | 1 to 10 µM | IC50 (MDA-MB-231 cells; read-out: antiproliferative activity IC50, MDA-MB-231 (first listing, r25)): > 10 µM; IC50 (THP-1 cells): 1 to 10 µM; IC50 (MV-4-11 cells): 1 to 10 µM; IC50 (Pfeiffer cells): 0.1 to 1 µM; IC50 (Daudi cells): > 10 µM; IC50 (K562 cells): > 10 µM; IC50 (MEG-01 cells): > 10 µM; IC50 (ARH77 cells): > 10 µM; IC50 (L1210 cells): > 10 µM; IC50 (P388 D1 cells): 1 to 10 µM |
